Five molecules from patent US20240067693A1, “POLYPEPTIDES AND USES THEREOF” (MEDIMMUNE LIMITED, priority 2020, published 2024) can be followed below.

For assay [1], the target named is T1, human amylin receptor (calcitonin receptor co-expressed with receptor activity modifying protein, RAMP3) (hAMYR3) (Homo sapiens, UniProt O60896+P30988).
T1 construct: expressed in transfected cells
T1 sequence (P30988 25-474): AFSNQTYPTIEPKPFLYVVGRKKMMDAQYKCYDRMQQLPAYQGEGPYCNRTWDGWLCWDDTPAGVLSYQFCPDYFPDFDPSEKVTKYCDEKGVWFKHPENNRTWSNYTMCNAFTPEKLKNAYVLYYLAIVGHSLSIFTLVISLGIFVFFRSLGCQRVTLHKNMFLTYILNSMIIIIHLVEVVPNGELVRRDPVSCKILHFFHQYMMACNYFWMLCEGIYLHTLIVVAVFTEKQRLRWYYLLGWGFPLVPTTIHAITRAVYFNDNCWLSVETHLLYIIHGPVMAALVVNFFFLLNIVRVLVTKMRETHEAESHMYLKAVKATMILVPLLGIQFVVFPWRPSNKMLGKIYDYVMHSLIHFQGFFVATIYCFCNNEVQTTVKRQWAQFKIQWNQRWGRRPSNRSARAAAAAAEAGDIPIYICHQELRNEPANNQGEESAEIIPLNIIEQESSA
T1 sequence (O60896 24-148 partner): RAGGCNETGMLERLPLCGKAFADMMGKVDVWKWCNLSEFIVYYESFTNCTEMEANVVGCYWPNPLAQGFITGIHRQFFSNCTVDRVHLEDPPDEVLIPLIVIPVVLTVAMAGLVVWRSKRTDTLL
Briefly: cAMP production in 1321N1 cells with stable recombinant expression of human amylin receptor (hAMYR3). Format: cell-based. The settings on record: for Ratio (selectivity hAMYR vs hCTR, ratio of EC50 values at the two receptors): EC50 hCTR / EC50 hAMYR3; for EC50: cAMP, 1321N1 cells, assay buffer with 0.1% BSA, read-out: EC50 (pM) hAMYR3. In short, it runs like this: (§1)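 EC50 values come from 4-parameter logistic fits of HTRF cAMP signal, normalised to maximal calcitonin or amylin effect. Peptides were tested in duplicate for 30 min at RT in IBMX-containing (0.5 mM) BSA/HEPES buffer pH 7.4 on stable 1321N1 (human CTR, AMYR3) or HEK (rat CTR, AMYR3) lines.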
In general terms: cAMP levels reflect the balance of adenylyl cyclase and phosphodiesterase activity.

In assay [2] the target is T2, human calcitonin receptor (hCTR) (Homo sapiens, UniProt P30988).
T2 construct: expressed in transfected cells
T2 sequence (P30988 25-474): T1 sequence (P30988 25-474)
Nature of the assay: cAMP production in 1321N1 cells with stable recombinant expression of human calcitonin receptor (hCTR). It is filed as cell-based. The settings on record: cAMP, 1321N1 cells, assay buffer with 0.1% BSA; read-out: EC50 (pM) hCTR. In short, it runs like this:
as §1

Numbered stars: 1 amine (or outer) side, 2 acyl side, 3 side chain; on linkers, the order of the positions; unused ones are H or OH. Bridge positions count the residues as written; N and C are the ends. Square brackets hold non-standard residues; d marks the D form. Side chains are listed from the residue outwards. Peptide text beside a SMILES is read from it. * marks the point of attachment. C18 diacid = O=C(O)CCCCCCCCCCCCCCCCC(=O)*; γGlu = O=C(O)[C@H](CCC(=O)[*:2])N[*:1]; Aib = CC(C)(N)C(=O)O

For `CC[C@H](C)[C@H](NC(=O)[C@@H]1CCCN1C(=O)CNC(=O)[C@H](Cc1ccccc1)NC(=O)[C@H](CC(N)=O)NC(=O)[C@H](CC(N)=O)NC(=O)[C@H](CO)NC(=O)[C@H](CO)NC(=O)[C@H](Cc1c[nH]cn1)NC(=O)C(C)(C)NC(=O)[C@H](CC(C)C)NC(=O)[C@H](Cc1ccccc1)NC(=O)[C@H](CC(N)=O)NC(=O)[C@H](C)NC(=O)[C@H](CC(C)C)NC(=O)[C@H](CCCNC(=N)N)NC(=O)[C@H](CCC(N)=O)NC(=O)[C@@H](NC(=O)[C@H](C)NC(=O)[C@@H]1CSSC[C@H](NC(=O)[C@H](CCCCN)NC(=O)[C@@H](N)CCCCNC(=O)CC[C@H](NC(=O)CCCCCCCCCCCCCCCCC(=O)O)C(=O)O)C(=O)N[C@@H](CC(N)=O)C(=O)N[C@@H]([C@@H](C)O)C(=O)N[C@@H](C)C(=O)N[C@@H]([C@@H](C)O)C(=O)N1)[C@@H](C)O)C(=O)N[C@@H](CC(C)C)C(=O)N1CCC[C@H]1C(=O)N1CCC[C@H]1C(=O)N[C@H](C(=O)NC(C)(C)C(=O)N[C@H](C(=O)NCC(=O)N[C@@H](CO)C(=O)N[C@@H](CC(N)=O)C(=O)N[C@H](C(=O)N[C@@H](Cc1ccc(O)cc1)C(N)=O)[C@@H](C)O)C(C)C)[C@@H](C)O` [Peptide 98, K(γE-C18diacid)K[CNTATC]ATQRLANFL(Aib)HSSNNFGPILPPT(Aib)VGSNTY-amide] (H-K([γGlu-C18 diacid])KCNTATCATQRLANFL[Aib]HSSNNFGPILPPT[Aib]VGSNTY-NH2; disulfide 3-8; N-terminus assumed), in assay [1], the “Ratio (selectivity hAMYR vs hCTR, ratio of EC50 values at the two receptors)” value came to 1 and the EC50 amounted to 942 pM. Further, in assay [2], the EC50 was determined as 972 pM.
For `CC[C@H](C)[C@H](NC(=O)[C@@H]1CCCN1C(=O)CNC(=O)[C@H](Cc1ccccc1)NC(=O)[C@H](CC(N)=O)NC(=O)[C@H](CC(N)=O)NC(=O)[C@H](CO)NC(=O)[C@H](CO)NC(=O)[C@H](Cc1c[nH]cn1)NC(=O)C(C)(C)NC(=O)[C@H](CC(C)C)NC(=O)[C@H](Cc1ccccc1)NC(=O)[C@H](CC(N)=O)NC(=O)[C@H](C)NC(=O)[C@H](CC(C)C)NC(=O)[C@H](CCCNC(=N)N)NC(=O)[C@H](CCC(N)=O)NC(=O)[C@@H](NC(=O)[C@H](C)NC(=O)[C@@H]1CSSC[C@H](NC(=O)[C@H](CCCCN)NC(=O)[C@@H](N)CCCCNC(=O)CC[C@H](NC(=O)CCCCCCCCCCCCCCCCC(=O)O)C(=O)O)C(=O)N[C@@H](CC(N)=O)C(=O)N[C@@H]([C@@H](C)O)C(=O)N[C@@H](C)C(=O)N[C@@H]([C@@H](C)O)C(=O)N1)[C@@H](C)O)C(=O)N[C@@H](CC(C)C)C(=O)N1CCC[C@H]1C(=O)N1CCC[C@H]1C(=O)N[C@H](C(=O)N[C@@H](CC(N)=O)C(=O)NC(C)(C)C(=O)NCC(=O)N[C@@H](CO)C(=O)N[C@@H](CC(N)=O)C(=O)N[C@H](C(=O)N[C@@H](Cc1ccc(O)cc1)C(N)=O)[C@@H](C)O)[C@@H](C)O` [Peptide 99, K(γE-C18diacid)K[CNTATC]ATQRLANFL(Aib)HSSNNFGPILPPTN(Aib)GSNTY-amide] (H-K([γGlu-C18 diacid])KCNTATCATQRLANFL[Aib]HSSNNFGPILPPTN[Aib]GSNTY-NH2; disulfide 3-8; N-terminus assumed) the same measures were 0.5, 3800 pM and 1820 pM.
For `CC[C@H](C)[C@H](NC(=O)[C@@H]1CCCN1C(=O)CNC(=O)[C@H](Cc1ccccc1)NC(=O)[C@H](CC(N)=O)NC(=O)[C@H](CC(N)=O)NC(=O)[C@H](CO)NC(=O)[C@H](CO)NC(=O)[C@H](Cc1c[nH]cn1)NC(=O)C(C)(C)NC(=O)[C@H](CC(C)C)NC(=O)[C@H](Cc1ccccc1)NC(=O)[C@H](CC(N)=O)NC(=O)[C@H](C)NC(=O)[C@H](CC(C)C)NC(=O)[C@H](CCCNC(=N)N)NC(=O)[C@H](CCC(N)=O)NC(=O)[C@@H](NC(=O)[C@H](C)NC(=O)[C@@H]1CSSC[C@H](NC(=O)[C@H](CCCCN)NC(=O)[C@@H](N)CCCCNC(=O)CC[C@H](NC(=O)CCCCCCCCCCCCCCCCC(=O)O)C(=O)O)C(=O)N[C@@H](CC(N)=O)C(=O)N[C@@H]([C@@H](C)O)C(=O)N[C@@H](C)C(=O)N[C@@H]([C@@H](C)O)C(=O)N1)[C@@H](C)O)C(=O)N[C@@H](CC(C)C)C(=O)N1CCC[C@H]1C(=O)N1CCC[C@H]1C(=O)N[C@H](C(=O)N[C@@H](CC(N)=O)C(=O)N[C@H](C(=O)NC(C)(C)C(=O)N[C@@H](CO)C(=O)N[C@@H](CC(N)=O)C(=O)N[C@H](C(=O)N[C@@H](Cc1ccc(O)cc1)C(N)=O)[C@@H](C)O)C(C)C)[C@@H](C)O` [Peptide 100, K(γE-C18diacid)K[CNTATC]ATQRLANFL(Aib)HSSNNFGPILPPTNV(Aib)SNTY-amide] (H-K([γGlu-C18 diacid])KCNTATCATQRLANFL[Aib]HSSNNFGPILPPTNV[Aib]SNTY-NH2; disulfide 3-8; N-terminus assumed) the same measures were 1, 364 pM and 459 pM.
As to `CC[C@H](C)[C@H](NC(=O)[C@@H]1CCCN1C(=O)CNC(=O)[C@H](Cc1ccccc1)NC(=O)[C@H](CC(N)=O)NC(=O)[C@H](CC(N)=O)NC(=O)[C@H](CO)NC(=O)[C@H](CO)NC(=O)[C@H](Cc1c[nH]cn1)NC(=O)C(C)(C)NC(=O)[C@H](CC(C)C)NC(=O)[C@H](Cc1ccccc1)NC(=O)[C@H](CC(N)=O)NC(=O)[C@H](C)NC(=O)[C@H](CC(C)C)NC(=O)[C@H](CCCNC(=N)N)NC(=O)[C@H](CCC(N)=O)NC(=O)[C@@H](NC(=O)[C@H](C)NC(=O)[C@@H]1CSSC[C@H](NC(=O)[C@H](CCCCN)NC(=O)[C@@H](N)CCCCNC(=O)CC[C@H](NC(=O)CCCCCCCCCCCCCCCCC(=O)O)C(=O)O)C(=O)N[C@@H](CC(N)=O)C(=O)N[C@@H]([C@@H](C)O)C(=O)N[C@@H](C)C(=O)N[C@@H]([C@@H](C)O)C(=O)N1)[C@@H](C)O)C(=O)N[C@@H](CC(C)C)C(=O)N1CCC[C@H]1C(=O)N1CCC[C@H]1C(=O)N[C@H](C(=O)N[C@@H](CC(N)=O)C(=O)N[C@H](C(=O)NCC(=O)NC(C)(C)C(=O)N[C@@H](CC(N)=O)C(=O)N[C@H](C(=O)N[C@@H](Cc1ccc(O)cc1)C(N)=O)[C@@H](C)O)C(C)C)[C@@H](C)O` [Peptide 101, K(γE-C18diacid)K[CNTATC]ATQRLANFL(Aib)HSSNNFGPILPPTNVG(Aib)NTY-amide] (H-K([γGlu-C18 diacid])KCNTATCATQRLANFL[Aib]HSSNNFGPILPPTNVG[Aib]NTY-NH2; disulfide 3-8; N-terminus assumed), the “Ratio (selectivity hAMYR vs hCTR, ratio of EC50 values at the two receptors)” value in assay [1] worked out at 2. Further, the 50% effective concentration (EC50) in assay [1] is 177 pM; in assay [2], 441 pM.
For `CC[C@H](C)[C@H](NC(=O)[C@@H]1CCCN1C(=O)CNC(=O)[C@H](Cc1ccccc1)NC(=O)[C@H](CC(N)=O)NC(=O)[C@H](CC(N)=O)NC(=O)[C@H](CO)NC(=O)[C@H](CO)NC(=O)[C@H](Cc1c[nH]cn1)NC(=O)C(C)(C)NC(=O)[C@H](CC(C)C)NC(=O)[C@H](Cc1ccccc1)NC(=O)[C@H](CC(N)=O)NC(=O)[C@H](C)NC(=O)[C@H](CC(C)C)NC(=O)[C@H](CCCNC(=N)N)NC(=O)[C@H](CCC(N)=O)NC(=O)[C@@H](NC(=O)[C@H](C)NC(=O)[C@@H]1CSSC[C@H](NC(=O)[C@H](CCCCN)NC(=O)[C@@H](N)CCCCNC(=O)CC[C@H](NC(=O)CCCCCCCCCCCCCCCCC(=O)O)C(=O)O)C(=O)N[C@@H](CC(N)=O)C(=O)N[C@@H]([C@@H](C)O)C(=O)N[C@@H](C)C(=O)N[C@@H]([C@@H](C)O)C(=O)N1)[C@@H](C)O)C(=O)N[C@@H](CC(C)C)C(=O)N1CCC[C@H]1C(=O)N1CCC[C@H]1C(=O)N[C@H](C(=O)N[C@@H](CC(N)=O)C(=O)N[C@H](C(=O)NCC(=O)N[C@@H](CO)C(=O)NC(C)(C)C(=O)N[C@H](C(=O)N[C@@H](Cc1ccc(O)cc1)C(N)=O)[C@@H](C)O)C(C)C)[C@@H](C)O` [Peptide 102, K(γE-C18diacid)K[CNTATC]ATQRLANFL(Aib)HSSNNFGPILPPTNVGS(Aib)TY-amide] (H-K([γGlu-C18 diacid])KCNTATCATQRLANFL[Aib]HSSNNFGPILPPTNVGS[Aib]TY-NH2; disulfide 3-8) the same measures were 3, 479 pM and 1630 pM.

What is called EC50 is the concentration needed to bring the measured effect to its halfway point.
